Patent US12458614B2, “Therapeutic agents for improved mobility and cognitive function and for treating neurodegenerative diseases and lysosomal storage disorders” (priority 2017, dated 2025)
Where “and” joins values, the source holds several entries; their conditions need not be identical. Equal values may be shown once.

Key:
[1] = test system: Mucolipidosis Type IIIA (MLIIIA) patient fibroblasts; assay: Lysosomal volume via LysoTracker; assay type: cell-based, human; conditions: 1 mM, 6 days
[2] = test system: Sandhoff disease model, Hexb−/− mouse; assay: Lifespan of Sandhoff mouse; assay type: in vivo; conditions: 0.1 g/kg from 3 weeks of age, p<0.05 vs untreated
Method: This study made use of a mouse model of Sandhoff disease, the Hexb^−/− mouse, as descrbed in Jeyakumar et al. (Jeyakumar, M. et al. (1999) Proc. Natl. Acad. Sci. USA 96: 6388-6393).
In FIG. 7A, acetyl-leucine-treated mice were treated with 0.1 g/kg acetyl-leucine from 3 weeks of age. The asterisks (*) indicates a p-value of <0.05 vs untreated Sandhoff mice. Data is average of n=6 mice per group. Without treatment, the median survival time of Sandhoff mice was 112 days. Treatment with acetyl-leucine (0.1 g/kg body weight since 3 weeks of age) increased the median lifespan to 120 days.

[3] = test system: Sandhoff disease patient fibroblasts; assay: Glycosphingolipid (GSL) levels via HPLC; assay type: cell-based, human; conditions: 1 mM for 6 days
[4] = test system: AB variant of Tay-Sachs disease patient fibroblasts; assay: Glycosphingolipid (GSL) levels via HPLC; assay type: cell-based, human; conditions: 1 mM for 6 days
[5] = test system: patient with corticobasal syndrome; assay: Case study, corticobasal syndrome; assay type: in vivo, human
Method: Gait analysis was performed before treatment commenced.

[6] = test system: patient with spinocerebellar ataxia 28 (SCA 28); assay: Case study, spinocerebellar ataxia 28; assay type: in vivo, human; conditions: SCA 28 patient, about one month, 5 g per day
Method: A gait analysis was performed before treatment commenced. After about one month of treatment, medication was stopped and the patient was evaluated. […] The patient reported that they no longer walked like a robot and could climb the stairs without using the banisters.

[7] = test system: patients with ataxia with oculomotor apraxia type 4; assay: Case study, ataxia with oculomotor apraxia type 4; assay type: in vivo, human; conditions: AOA4 youngest sibling
Text: In this case study, four patients (male siblings) suffered from, and were later diagnosed with, ataxia with oculomotor apraxia type 4. The older three siblings […], at the time of disease onset. […] The older siblings began treatment with acetyl-leucine […], respectively, and have been on the treatment for approximately four years. No long-term clinical data is available for these three patients.
The youngest sibling was […] at the time of onset. […] No long-term clinical data is available for the youngest sibling.

[8] = test system: patient with progressive gait disorder; assay: Case study Example 26, quantitative gait analysis; assay type: in vivo, human
[9] = test system: subjects with no apparent dysfunction in cognitive ability or movement/balance; assay: Psychomotor Vigilance Task (Mind Metrics App); assay type: in vivo, human
Text: For example, the Psychomotor Vigilance Task (PVT) is a sustained-attention, reaction-timed task that measures the speed with which subjects respond to a visual stimulus. The subject monitors a screen and presses the screen as quickly as possible upon the appearance of visual stimuli. The visual stimuli will then disappear and reappear (at irregular time intervals) e.g., 10 times over the course of the test, with the subject touching the screen as quickly as possible upon each reappearance. Test performance is quantified from an average of the e.g. 10 reaction times. The subject's reaction speed and alertness was assessed using the Mind Metrics App (Psychomotor Vigilance Task, 10 trials per test). The Psychomotor Vigilance Task (PVT) is a sustained-attention, reaction-timed task that measures the speed with which subjects respond to a visual stimulus. The subject is required to monitor a screen and press the screen as quickly as possible upon the appearance of visual stimuli. The visual stimuli will then disappear and reappear (at irregular time intervals) 10 times over the course of the test, with the subject touching the screen as quickly as possible upon each reappearance. Test performance is quantified from an average of the 10 reaction times. […] The subject was assessed for 2 weeks prior to taking acetyl-leucine, which constitutes the baseline period. […] Medication was taken at least 2 hours after and 30 minutes prior to eating. The 5 g daily dose was taken in 3 separate doses throughout the day—2 g upon waking, 1.5 g prior to lunch and 1.5 g prior to the evening meal. Daily treatments and assessments continued for 4 weeks. […]

[10] = test system: subjects with no apparent dysfunction in cognitive ability or movement/balance; assay: Balancing ability (eyes closed, non-dominant foot lifted); assay type: in vivo, human
Method: Due to reported improvement in balance on treatment we measured balancing ability at the end of the treatment period and at the end of the washout period. This assessment required the subject to close their eyes and lift their non-dominant foot around 6 inches off the ground. The subject was then timed to see how long they could remain upright and without significant wobbles. This was repeated three times, and the values averaged. […] This assessment required the subject to close their eyes and lift their non-dominant foot around 6 inches off the ground. The subject was then timed to see how long they could remain upright and without significant wobbles. This was repeated three times, and the values averaged. We measured balancing ability at the end of the treatment period and at the end of the washout period. This assessment required the subject to close their eyes and lift their non-dominant foot around 6 inches off the ground. The subject was then timed to see how long they could remain upright and without significant wobbles. This was repeated three times, and the values averaged.

[11] = test system: patients with multiple system atrophy Parkinson type (MSA-P); assay: Case studies, multiple system atrophy Parkinson type; assay type: in vivo, human
[12] = one line per subject (age/gender 66 M, 29 M, 55 F, 50 M, 53 M, 48 F), listed as acetyl-leucine
[13] = MSA-P Patient 2, after one month of treatment

CC(=O)NC(CC(C)C)C(=O)O (racemic) [acetyl-DL-leucine]
LysoTracker fluorescence vs untreated disease fibroblasts [1]: trend in reducing LysoTracker fluorescence toward control level | Lifespan of the Sandhoff mouse [2]: statistically significant increase in the lifespan | GSL levels [3]: trend towards decreased GSL levels | GSL levels [4]: trend towards decreased GSL levels | Frequency of falls ([5]; after 20 days): significant reduction in the frequency of falls | Gait analysis parameters (summary) ([5]; after 20 days): objective improvement in gait analysis parameters | Dizziness symptoms ([5]; after 20 days, 3 g then 5 g per day): improvement of dizziness symptoms | Dizziness after suspension ([5]; two days after suspension of treatment): increase of dizziness symptoms | Symptomatology (patient report) [6]: improvement of the symptomatology, in particular reduced dizziness | Fine motor skills and speech (reported by mother) [7]: improved fine motor skills and improved speech at each age compared to their older siblings | Gait (patient and spouse report) ([8]; 3 gram per day for two weeks): considerable improvement of gait | Functioning and quality of living (spouse report) ([8]; Day 42, 3 gram per day restarted): dramatic improvement | Self-chosen gait velocity ([8]; Day 42, from 55 cm/sec): 62 cm/s | Maximal gait velocity ([8]; Day 42, from 84 cm/sec): 130 cm/s | Symptoms after medication was stopped ([8]; in vivo): worsening of symptoms | % change in Reaction Time ([9]; on-treatment vs baseline, one line per subject (66 M, 29 M, 55 F, 50 M, 53 M, 48 F), listed as acetyl-leucine): −3.593% and 1.408% and 8.13% and −10.24% and −7.474% and −30.86% | Details on Subjective Improvement ([9]; one line per subject): Improvement in general | Statistically significant improvement in PVT performance on treatment? [9, 12]: Yes (4×) and No (2×) | Subjective Improvement on treatment? [9, 12]: Yes (5×) and No | Adverse effects ([9]; person five): None reported | Subjective measurements ([9]; person five): feeling less tired than usual | Adverse effects ([9]; person four): None reported | Subjective measurements ([9]; person four): improvement in general alertness | Adverse effects ([9]; person one): None reported | Subjective measurements ([9]; person one): shortening of the time required to go from ‘asleep’ to ‘fully awake’ | Adverse effects ([9]; person six): None reported | Subjective measurements ([9]; person six): no difference between on and off medication | Subjective measurements ([9]; person three): improvement in general alertness | Adverse events ([9]; person three, first week on medication, one occasion): mild dizziness/lightheadedness | Adverse effects ([9]; person two): None reported | Subjective measurements ([9]; person two): improvement in general alertness | Time subject remained balanced ([10]; person one, end of the washout period): 8 s | Time subject remained balanced ([10]; person one, last day of the treatment period): 12 s | Time subject remained balanced ([10]; person three, end of the washout period): 4.01 s | Time subject remained balanced ([10]; person three, last day of the treatment period): 7.27 s | Time subject remained balanced ([10]; person two, end of the washout period): 3.1 s | Time subject remained balanced ([10]; person two, last day of the treatment period): 7.9 s | Symptoms after stopping medication ([11]; MSA-P Patient 1, 6 weeks later): did not report deterioration of symptoms | Gait, falls, hypokinetic rigid-syndrome (patient report) ([11]; MSA-P Patient 1, after 3 weeks): no significant improvement of gait, reduction of falls or improved hypokinetic rigid-syndrome | Balance (clinical examination) [11, 13]: improved balancing on an imaginary tightrope | Dizziness (patient report) [11, 13]: subjective improvement of dizziness | Symptomatology (patient report) ([11]; MSA-P Patient 2, after one month without medication): stable symptomatology | Symptomatology (patient report) ([11]; MSA-P Patient 2, after two months without medication): worsening of general symptomatology
